This is an account of results in patent US8197838B2, “Sustained release systems of ascorbic acid phosphate” (Advanced Technologies and Regenerative Medicine, LLC., priority 2008, dated 2012).

“And” between values parts separate entries of the source, which are not always exact repeats. Equal values may be shown once.

A short description of series [1]: Color change as indicator of AZP degradation. Format: physicochemical. On the procedure: (§1) The dried AZP powder vials were sealed with Parafilm and stored under dry a nitrogen blanket until evaluation. The weight loss % was cumulative over both heating conditions. The samples under RT/N2 were stored in nitrogen box. The samples were evaluated for color change of the course of the heating conditions. Color change is an indicator of AZP degradation. […] The higher temperature and shorter time could have the same drying effects on the weight loss. […] Therefore 160° C. and 30 minutes were selected as the upper limits of the drying and processing condition
Films were prepared as follow: The platens of a compression molding instrument (Carver Laboratory Press, Model: 2696) were pre-heated to 205° C. About 3.5 grams of the composition were placed on the platens and heated for 5 minutes. Pressure was applied (about 20,000 lbs) for about 2 minutes. The heating was stopped and the platens and film were allowed to cool to RT under water cooling and continued pressure.

For series [2] the following is noted: stated by material safety data sheet from an AZP manufacturer; cited from earlier work.
The nature of series [3]: AZP drying condition evaluation (weight loss on heating). It counts as physicochemical. Particulars: for Total Weight loss after 2nd Heat: cumulative; for Weight loss after 1st Heat: Trisodium Salt. On the procedure:
The following drying conditions for 2-Phospha-L-ascorbic Acid Trisodium Salt (AZP), (>98% (HPLC), Fluka, Lot#: 1322473 52607420) were tested: 90° C./24 hrs. under vacuum, 160° C./30 minutes under dry nitrogen blanket, and 200° C./30 minutes under dry nitrogen blanket. The times tested include estimating the compounding time and time for sample collection and cooling.
6 glass vials were pre-dried in a vacuum oven at 160° C. for 30 minutes and transferred to a glove box purged with dry nitrogen gas. AZP powder was weighed in each vial (see Table 1) in the glove box.
as §1

Regarding “2-Phospha-L-ascorbic Acid Trisodium Salt [AZP]”, the “Color change of AZP powder (indicator of degradation)” value in series [1] (sample number 6, 90° C./Vac 24 hrs then heated to 200° C.) is “darkest yellow color”; in series [1] (samples heated at 90° C./24 hrs.) it was “very slight yellow color”; in series [1] (samples heated for no more than 30 minutes), “retained the original white color”; in series [1] (samples that underwent 2 heat treatments) it was “slightly yellow color”. The “Degradation temperature of AZP” value in series [2] is “about 260 °C”. For the same substance, the “Total Weight loss after 2nd Heat” value in series [3] (1st 90° C./Vac 24 hours, 2nd 160° C./N2/air 30 min) is recorded as 6.25 wt %; in series [3] (1st 90° C./Vac 24 hours, 2nd 200° C./N2/air 30 min) it was 6.75 wt %; in series [3] (1st 90° C./Vac 24 hours, 2nd RT/N2 30 min) it was 4.41 wt %; in series [3] (1st RT/N2 24 hours, 2nd 160° C./N2/air 30 min), 10.06 wt %; in series [3] (1st RT/N2 24 hours, 2nd 200° C./N2/air 30 min), 8.10 wt %; in series [3] (1st RT/N2 24 hours, 2nd RT/N2 30 min (control)) it was 0.25 wt %. Further, the “Weight loss after 1st Heat” value in series [3] (1st heat for 24 hours 90° C./Vac) was 8.09 wt % and 7.59 wt % and 6.43 wt %; in series [3] (1st heat for 24 hours RT/N2), 1.18 wt % and 1.76 wt % and 1.00 wt %. Moreover, the “Moisture content of AZP as received” value in series [3] (as received) was “up to 7.5 % by weight”.
